According to US20060228405A1, “Phospholipid-based pharmaceutical formulations and methods for producing and using same” (Conforma Therapeutics Corporation, priority 2005, published 2006):

Legend:
[1] = mean +/- SD; cited from earlier work
[2] = Solvent stability of low melt form of 17-AAG slurried in H2O:EtOH (90:10); assay type: physicochemical; details: crystals slurried in H2O:EtOH (90:10)
Method: 17-AAG may be prepared from geldanamycin via reaction with allyamine in dry THF under a nitrogen atmosphere. The crude product may be purified by slurrying in H2O:EtOH (90:10), and the washed crystals obtained have a melting point of 206-212° C. by capillary melting point technique. A second product of 17-AAG can be obtained by dissolving and recrystallizing the crude product from 2-propyl alcohol (isopropanol). This second 17-AAG product has a melting point between 147-153° C. by capillary melting point technique. […] See Examples 1-2 for details of the preparation of the two polymorphic forms of 17-AAG. In addition to the high melt and low melt forms, it is well known that 17-AAG has an amorphous form.
The 17-AAG product from Example 2 was dissolved in 400 mL of H2O:EtOH (90:10) at 25° C. Filltration followed by aging at 45° C. for 8 hr gave […] (68.6 mmol) of 17-AAG as purple crystals (95% yield, >99% pure by HPLC monitored at 254 nm). m.p.=[…]. ^1H NMR and HPLC are consistent with the desired product.

rat tail vein = experiment: Intravenous injection and tolerance, rat tail vein; assay type: in vivo; details: phospholipid dispersion; rats
Method: (§1) Pharmacokinetics for the solution formulation and the dispersion formulation were very similar. The method of the invention was also used to prepare dispersion formulations with the hydrochloride and phosphate salts of Compound 237. […] Dispersion formulations were also prepared using water soluble and slightly water soluble derivatives of geldanamycin. Specifically, similar dispersions containing DMAG were similarly formulated and well-tolerated upon tail vein injection into mice and rats.

tail vein = experiment: Intravenous injection and tolerance, tail vein injection into mice; assay type: in vivo; details: phospholipid dispersion
Method: as §1

C=CCNC1=C2C[C@@H](C)C[C@H](OC)[C@H](O)[C@@H](C)/C=C(\C)[C@H](OC(N)=O)[C@@H](OC)/C=C\C=C(/C)C(=O)NC(=CC1=O)C2=O [Compound 17-AAG, 17-allylamino-17-desmethyl-geldanamycin]
steady-state volume [1]: 86.6+34.6 L/m^2

C=CCNC1=C2C[C@@H](C)C[C@H](OC)[C@H](O)[C@@H](C)/C=C(\C)[C@H](OC(N)=O)[C@@H](OC)/C=C\C=C(/C)C(=O)NC(=CC1=O)C2=O [low melt form of 17-AAG, 17-allylamino-17-desmethyl-geldanamycin]
conversion of low melt form to high melt form [2]: no conversion to the high melt form was observed

CO[C@H]1/C=C\C=C(/C)C(=O)NC2=CC(=O)C(NCCN(C)C)=C(C[C@@H](C)C[C@H](OC)[C@H](O)[C@@H](C)/C=C(\C)[C@@H]1OC(N)=O)C2=O [DMAG, 17-N,N-dimethylaminoethylaminogeldanamycin]
tolerance upon tail vein injection (rat tail vein): well-tolerated
tolerance upon tail vein injection (tail vein): well-tolerated
